For one series, the system named is KB cells. As to the kind of experiment: In Vitro KB Cell Cytotoxicity Assay (crystal violet). It counts as cell-based. The settings on record: Homo sapiens, 72 h, read-out: Cytotoxicity TD50 KB. As to the method:
KB cells were cultivated in Eagles minimum essential medium supplemented with 10% calf serum and incubated at 37° C. in a humidified 5% CO2 atmosphere to prepare a cell stock. Cells were counted using a neubauer hemocytometer and seeded in 96 well plates at 100 μl of 3×10^4 cells/ml and cultured for one day. […] Control wells were identical except that test compound was absent. These were cultured for three days. […] Then stained with 100 μl of 0.05% crystal violet for 15 minutes, washed with water and dried. The wells were eluted with 100 μl of 0.05M NaH2 PO4 /ethanol (1:1 v/v) and read at OD540 on a multiscan spectrophotometer. TD50 values were calculated using the following formula.

In another series the test system is L1210 cells. In words: cells. In kind it is cell-based. Conditions: Mus musculus, L1210, 72 h, read-out: Cytotoxicity TD50 L1210. As to the method:
In vitro L1210 cell cytotoxicity assay was done by the method of microculture tetrazolium assay (Alley et al., Cancer Research, 48, 589-601 (1988)). L1210 cells were cultivated in RPMI 1640 medium supplemented with 10% fetal calf serum and […] of 2-mercaptoethanol at 37° C. in humidified 5% CO2 atmosphere to prepare a cell stock. Cells were counted using neubauer hemocytometer and seed in 96 well plates at 100 μl of 0.5×10^4 cells per ml. The test compounds were diluted and 100 μl of the solution was added in triplicate wells to give the final concentration of 10, 5, 1, 0.5 and 0.1 μg/ml. Control wells were identical except that the test compound was absent. These were cultured for three days. Results were assayed using the microculture tetrazolium assay briefly. 50 μl of MTT formazoan working solution (1:5 v/v in culture medium) was added to each well and cultures were incubated at 37° C. for 4 hrs. Culture plates were centrifuged at low speed for 5 minutes. All but 10-20 μl of culture medium supernatant was removed by slow aspiration and replaced by 50 μl of DMSO. The formazoan was dissolved by shaking on a mechanical shaker and read at OD540 on a multiscan spectrophotometer. TD50 values were calculated using the formula: [formula] to give interpolative values between two dilutions.

Another series has as its system Sarcoma 180. As to the kind of experiment: In Vivo Antitumor Activity Against Sarcoma 180. The settings on record: for Mortality in 12 days: i.p., days 1, 5 and 9.
[1] abbreviates: Mus musculus, Sarcoma-180, ip, 288 h, read-out: % Inhibition of tumor growth.

In brackets after ≈: the same amount, converted by molar mass.

Experimental for Sarcoma 180: Sarcoma 180, 5×10^6 cells were inoculated by S.C. to male ICR mice (6 weeks old) on day 0. Drugs were administered on days 1, 5 and 9. Mice were killed and tumor weight was measured on day 12 after transplantation. The percentage inhibition of tumor growth was calculated from the mean tumor weight of the treated group compared with that of the control group. Number of mice used in each group was between 6 to 10.

On to `O=COC[C@H]1CN2C(=O)C[C@@H]2O1` (racemic) [compound 3, (3RS, 5SR)-3-Formyloxymethyl-4-oxa-1-azabicyclo[3,2,0]heptan-7-one], for which the results for the CC50 in the series on KB cells and in the series with L1210 cells were 0.04 µg/mL (≈ 0.234 µM) and 0.22 µg/mL (≈ 1.29 µM), respectively. The “Mortality in 12 days” value with Sarcoma 180 (3.13 mg/kg/day) and with Sarcoma 180 (6.25 mg/kg/day) was 0/7 each time. Besides, the inhibition in vivo at 3.13 mg/kg with Sarcoma 180 (setting [1]) came out at 27.6%. Moreover, the inhibition in vivo at 6.25 mg/kg in the series on Sarcoma 180 (setting [1]) was 55.3%.
As for `CC(=O)OC[C@H]1CN2C(=O)C[C@@H]2O1` (racemic) [compound 4, (3RS, 5SR)-3-Acetoxymethyl-4-oxa-1-azabicyclo[3,2,0]heptan-7-one], the CC50 with KB cells and in the series with L1210 cells was 0.4 µg/mL (≈ 2.16 µM) in each case. In addition, the “Mortality in 12 days” value with Sarcoma 180 (6.25 mg/kg/day) and in the series with Sarcoma 180 (12.5 mg/kg/day) was 0/7 in each case. Further, in the series on Sarcoma 180 (setting [1]), the inhibition in vivo at 6.25 mg/kg was found to be 64%. Also, the inhibition in vivo at 12.5 mg/kg in the series with Sarcoma 180 (setting [1]) was found to be 70.7%.
As to `CCCC(=O)OC[C@H]1CN2C(=O)C[C@@H]2O1` (racemic) [compound 5, (3RS, 5SR)-3-Butyryloxymethyl-4-oxa-1-azabicyclo [3,2,0]heptan-7-one], the figures for the CC50 in the series with KB cells and with L1210 cells were 0.3 µg/mL (≈ 1.41 µM) and 0.45 µg/mL (≈ 2.11 µM), respectively.
As to `CCCCCC(=O)OC[C@H]1CN2C(=O)C[C@@H]2O1` (racemic) [compound 6, (3RS, 5SR)-3-Hexanoyloxymethyl-4-oxa-1-azabicyclo[3,2,0]heptan-7-one], the CC50 was determined as 0.3 µg/mL (≈ 1.24 µM) with KB cells and 0.7 µg/mL (≈ 2.9 µM) with L1210 cells. Further, the “Mortality in 12 days” value in the series with Sarcoma 180 (13 mg/kg/day), in the series with Sarcoma 180 (25 mg/kg/day) and in the series on Sarcoma 180 (50 mg/kg/day) was 0/6 in each case. Moreover, the inhibition in vivo at 13 mg/kg in the series on Sarcoma 180 (setting [1]) came to 36.4%. In the series with Sarcoma 180 (setting [1]), the inhibition in vivo at 25 mg/kg is 61.4%. Further, the inhibition in vivo at 50 mg/kg with Sarcoma 180 (setting [1]) was determined as 78%.
For `CCCCCCCC(=O)OC[C@H]1CN2C(=O)C[C@@H]2O1` (racemic) [compound 7, (3RS, 5SR)-3-(n-Octanoyloxymethyl)-4-oxa-1-azabicyclo[3,2,0] heptan-7-one], the CC50 in the series with KB cells is 0.1 µg/mL (≈ 0.371 µM); with L1210 cells it was 0.34 µg/mL (≈ 1.26 µM).
Taken in the same sequence, the figures for `CCCCCCCCCC(=O)OC[C@H]1CN2C(=O)C[C@@H]2O1` (racemic) [compound 8, (3RS, 5SR)-3-Decanoyloxymethyl-4-oxa-1-azabicyclo[3,2,0]heptan-7-one] were 0.3 µg/mL (≈ 1.01 µM) and 0.37 µg/mL (≈ 1.24 µM).
For `O=C(CCl)OC[C@H]1CN2C(=O)C[C@@H]2O1` (racemic) [compound 13, (3RS, 5SR)-3-Chloroacetoxymethyl-4-oxa-1-azabicyclo[3,2,0]heptan-7-one] the same measures were 0.5 µg/mL (≈ 2.28 µM) and 0.28 µg/mL (≈ 1.27 µM).
On to `C#CC(=O)OC[C@H]1CN2C(=O)C[C@@H]2O1` (racemic) [compound 16, (3RS, 5SR)-3-Propynoyloxymethyl-4-oxa-1-azabicyclo[3,2,0]heptan-7-one], for which the CC50 was determined as 0.07 µg/mL (≈ 0.359 µM) with KB cells and 0.04 µg/mL (≈ 0.205 µM) with L1210 cells. Also, the “Mortality in 12 days” value with Sarcoma 180 (1.56 mg/kg/day) and with Sarcoma 180 (3.13 mg/kg/day) was 0/7 each time. In the series on Sarcoma 180 (setting [1]), the inhibition in vivo at 1.56 mg/kg was determined as 45.9%. Also, in the series on Sarcoma 180 (setting [1]), the inhibition in vivo at 3.13 mg/kg was 53%.
With `O=C1C[C@@H]2O[C@@H](C[S+]([O-])Cc3ccccc3)CN12` (mixture of isomers) [compound 42, (3RS,5SR)-3-Benzylsulfinylmethyl-4-oxa-1-azabicyclo[3,2,0]heptan-7-one], the values for the CC50 in the series on KB cells and in the series with L1210 cells were 0.1 µg/mL (≈ 0.377 µM) and 0.3 µg/mL (≈ 1.13 µM), respectively. For the same molecule, the “Mortality in 12 days” value in the series on Sarcoma 180 (50 mg/kg/day) is recorded as 0/7. In the series on Sarcoma 180 (setting [1]), the inhibition in vivo at 50 mg/kg is 64%.
As for `O=C1C[C@@H]2O[C@@H](C[S+]([O-])c3ccccc3)CN12` (mixture of isomers) [compound 45, (3RS, 5SR)-3-Phenylsulfinylmethyl-4-oxa-1-azabicyclo [3,2,0]heptan-7-one], the CC50 was determined as 0.3 µg/mL (≈ 1.19 µM) in the series with KB cells and 0.26 µg/mL (≈ 1.03 µM) in the series on L1210 cells.
Turning to `CC=CC=CC(=O)OC[C@H]1CN2C(=O)C[C@@H]2O1` (relative stereo) [compound 14, (3RS, 5SR)-3-(2,4-Hexadienoyloxyymethyl)-4-oxa-1-azabicyclo [3,2,0]heptan-7-one], the CC50 in the series with KB cells was 0.3 µg/mL (≈ 1.26 µM); in the series on L1210 cells, 0.65 µg/mL (≈ 2.74 µM).
Consider `CCC=CCC=CCC=CCCCCCCCC(=O)OC[C@H]1CN2C(=O)C[C@@H]2O1` (relative stereo) [compound 15], for which the results for the CC50 in the series on KB cells and in the series with L1210 cells were 0.41 µg/mL (≈ 1.02 µM) and 0.5 µg/mL (≈ 1.24 µM), respectively.
With `O=C1C[C@@H]2O[C@@H](CO)CN12` [compound 40, (3R,5S)-3-Hydroxymethyl-4-oxa-1-azabicyclo[3,2,0]heptan-7-one], the figures for the CC50 in the series on KB cells and in the series with L1210 cells were 0.03 µg/mL (≈ 0.21 µM) and 0.027 µg/mL (≈ 0.189 µM), respectively. In addition, the “Mortality in 12 days” value in the series with Sarcoma 180 (0.94 mg/kg/day), in the series on Sarcoma 180 (1.88 mg/kg/day), in the series with Sarcoma 180 (3.75 mg/kg/day) and in the series on Sarcoma 180 (7.5 mg/kg/day) was 0/7 each time. For the same molecule, the inhibition in vivo at 0.94 mg/kg in the series with Sarcoma 180 (setting [1]) worked out at 56.1%. Besides, the inhibition in vivo at 1.88 mg/kg in the series with Sarcoma 180 (setting [1]) worked out at 63.7%. Moreover, the inhibition in vivo at 3.75 mg/kg in the series with Sarcoma 180 (setting [1]) came out at 69.1%. Besides, the inhibition in vivo at 7.5 mg/kg with Sarcoma 180 (setting [1]) was determined as 77.4%.
